Laboratory results taken from publication PMC9820559, “Investigation of the Fuzzy Complex between RSV Nucleoprotein and Phosphoprotein to Optimize an Inhibition Assay by Fluorescence Polarization” (International Journal of Molecular Sciences, 2022).
Square brackets hold non-standard residues; d marks the D form. Ends that are not written are not given here. Peptide text beside a SMILES is read from it. pS = N[C@@H](COP(=O)(O)O)C(=O)O

T1: RSV N-RNA complex (full-length N protein in ring-shaped complexes with bacterial RNA) (human respiratory syncytial virus, UniProt P03418 1-391)
T1 construct: human RSV nucleoprotein N, full length; concentrations are of N protomer; also called N-RNA rings; source: in lysate for the co-purification; purified (glutathione-Sepharose, thrombin, Superdex 200) as N-RNA complex; copies: 10-11
T1 sequence (looked up): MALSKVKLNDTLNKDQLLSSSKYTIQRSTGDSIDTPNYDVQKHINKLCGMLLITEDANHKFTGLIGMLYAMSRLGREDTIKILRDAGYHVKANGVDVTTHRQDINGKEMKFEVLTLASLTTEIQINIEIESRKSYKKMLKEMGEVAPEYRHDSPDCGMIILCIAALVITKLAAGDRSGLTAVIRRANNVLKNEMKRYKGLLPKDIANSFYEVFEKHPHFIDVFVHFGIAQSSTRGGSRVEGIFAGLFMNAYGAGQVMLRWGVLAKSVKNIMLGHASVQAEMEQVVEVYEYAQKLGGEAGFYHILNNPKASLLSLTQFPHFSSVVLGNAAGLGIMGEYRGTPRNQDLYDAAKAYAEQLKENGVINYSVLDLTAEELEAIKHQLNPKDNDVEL


Key:
[1] = biological target: T2, RSV NNTD (Human respiratory syncytial virus A, UniProt P03418); assay: NMR titration of 15N-labeled NNTD (1H-15N HSQC chemical shift perturbations); assay type: binding; settings: 20 mM MES pH 6.5, 250 mM NaCl, 20 °C; single site model; mean of 26 individual values; read-out: mean Kd from residue-specific Kds
T2 construct: The N-terminal domain NNTD (residues 31–252), containing a C-terminal 6x histidine tag; 6xHis (C); made in house; host or cells: E. coli BL21(DE3)
Description: Here, as P protein is constitutively phosphorylated on Ser232 and Ser237 residues in cells, we first investigated the impact of phosphorylation on the affinity of the NNTD-PCtail complex. We performed an NMR titration experiment by adding increasing amounts of pP11 peptide, where Ser232 and Ser237 residues were replaced by O-phosphoserines (pSer, Figure 1A), to a solution of ^15N-labeled NNTD, and measured 2D ^1H-^15N HSQC spectra (Figure 2A). We worked in the same buffer as with P12. At pH 6.5, the pSer sidechains are expected to be mostly negatively charged. Addition of pP11 induced perturbations in the HSQC spectrum of NNTD, in particular chemical shift perturbations (CSPs). […] We measured combined ^1H and ^15N amide CSPs (Equation (1)) for NNTD signals in a fast chemical exchange regime, i.e., signals that shifted in the spectrum without broadening at intermediate titration points (e.g., Ile129 in Figure 2A). Significant CSPs were located in and around the P-binding pocket, confirming that pP11 binds to the previously determined P-binding epitope on NNTD (Figure 2B,C). […]
Overall, signals of bound NNTD were broader than those of unbound NNTD (Figure 2A). […] From chemical shift differences measured for these residues we determined an exchange rate kex of ~800 s^−1 (from Equation (3)) between free and bound NNTD, which indicates a fast dynamic process. […]

[2] = biological target: T3, RSV N-RNA complex (Human respiratory syncytial virus A, UniProt P03418); assay: Fluorescence polarization inhibition of N-RNA binding to fluorescent probes; settings: Ki, probe BCN11EE, [N-RNA] 1 µM; IC50-to-Ki server
T3 construct: Full-length N was produced by co-expression with the C-terminal domain of RSV P protein in E. coli BL21(DE3); made in house; host or cells: E. coli BL21(DE3), co-transformed with pET-N and pGEX-P(161–241)
Description: We next performed inhibition experiments for the F11-(N-RNA) complex by M76 (Figure 4B). FP values decreased with increasing competitor concentration. At saturation, FP nearly reached the value of free F11, showing that the F11 peptide could be nearly completely displaced. Since the same concentration range was used for NNTD and N-RNA, poor solubility of M76 can be ruled out to explain the saturation observed before complete displacement of F11 in the presence NNTD (Figure 3C). This reinforces the hypothesis of a second binding site on NNTD, outside the canonical P-binding site. […]
To probe the potency of M76 as an inhibitor, we carried out competition experiments with the M76 molecule and several BCNn peptides. M76 was able to displace the fluorescent probes from N-RNA, and inhibition curves were obtained (Figure 8E). Since we used different N concentrations to have similar dynamic ranges of FP for the series of fluorescent peptides, we cannot directly compare M76 IC50s. However, Kis may be compared.
Fluorescence polarization measurements were carried out on a Paradigm Detection Platform (Beckman Coulter, Brea, CA, USA) operating with a microplate reader, a fluorescein detection cartridge (excitation range 485/20 nm, emission range 535/25 nm for both parallel and perpendicular components) and the SpectraMax Pro 6.1 software (Molecular Devices, San Jose, CA, USA). Samples were placed in polystyrene black flat bottom 96-well microplates (Cellstar, Greiner bio-one, Frickenhausen, Germany) with 20 µL final volume in each well. If not stated otherwise, the final concentration of fluorescent ligands was 200 nM. The buffer was either 20 mM MES pH 6.5, salt-free or with 250 mM NaCl, or 20 mM Tris pH 8.0 salt-free or with 100 mM NaCl, supplemented with 0.01% Brij-35. Mixing was done using the corresponding plate reader option. The temperature was set to 20 °C. Data were recorded in top reading mode. Measurements were done in triplicate and after an incubation time of 30 min, if not indicated otherwise. Fluorescence polarization (FP) in mFP units was determined from the parallel (I∥) and perpendicular (I⊥) components of the emitted light according to Equation (4). A grating factor G of 1.2 was determined using 1 nM fluorescein in 1 mM NaOH and assuming a theoretical FP of 27 mFP [48]. Background signal was measured from wells containing only buffer, and the mean value was subtracted from each I∥ and I⊥ component. (4) FP (mP)=1000×(I∥−G∗I⊥)/(I∥+G×I⊥)
To assess inhibition of a complex between a fluorescent probe and N protein by peptides or the M76 molecule, the concentration of N was set to work with an FP range comprised between FPmin and ~80% FPmax. Peptides were added from 1 or 2 mM stock solution in water at neutral pH. M76 was added from 10 or 20 mM stock solutions in ethanol or in DMSO. […] Inhibition data were fitted with Origin 7, and in parallel with the Excel solver module. All data were compatible with an absence of cooperativity. FPmax and FPmin were fitted, and the maximal inhibition %i,max was set to 100%. (11) %i=100×[1−(FP−FPmin)/(FPmax−FPmin)] (12) %i=%i,max×[inhibitor]/[inhibitor]+IC50
Inhibition constants Ki were calculated on the IC50-to-Ki converter for a protein-ligand-inhibitor system (https://bioinfo-abcc.ncifcrf.gov/IC50_Ki_Converter/index.php, accessed on 24 August 2022), assuming a competitive mechanism (Equation (13)). This tool takes into account the free concentrations of protein and ligand. (13) Ki=(IC50−[protein]/2)/([peptide]/Kd+1)

[3] = biological target: T1, RSV N-RNA complex (full-length N …); assay: fluorescence polarisation; competition: unlabeled pP11 varied against 200 nM BCN_(11EE) on 1 µM N-RNA; Tris pH 8 buffer; Hill equation; Ki from the IC50-to-Ki server; settings: both partners purified

Row | Molecule | Kd [1] [µM] | Ki [2] [µM] | IC50 [3] [µM]
1 | CC(C)C[C@H](NC(=O)[C@H](COP(=O)(O)O)NC(=O)[C@H](CC(C)C)NC(=O)[C@H](CC(=O)O)NC(=O)[C@H](CC(N)=O)NC(=O)[C@H](CC(=O)O)NC(=O)[C@H](COP(=O)(O)O)NC(=O)[C@@H](N)CC(=O)O)C(=O)N[C@@H](CCC(=O)O)C(=O)N[C@@H](CC(=O)O)C(=O)N[C@@H](Cc1ccccc1)C(=O)O [pP11] (H-D[pS]DNDL[pS]LEDF-OH) | 17 ± 4.5 | 1.4 | 
2 | D[pS]DNDL[pS]LEDF (C-terminal 11 residues of RSV phosphoprotein P with Ser232 and Ser237 as O-phosphoserines; source: bought: GeneCust (synthetic peptide, >95% purity)) [pP11 peptide (RSV P C-terminal 11-mer with O-phosphoserines at 232 and 237)] |  |  | 6.9 ± 1.2
